Data published in patent publication US10174036B2, “Substituted pyrazoles as JAK inhibitors” (WUXI FORTUNE PHARMACEUTICAL CO., LTD, priority 2015, dated 2019).

Key:
Format in all cases: biochemical
JAK2 = target: T1, JAK2 (Homo sapiens, UniProt O60674); experiment: Test for in vitro activity of JAK2 kinase (LANCE Ultra ULight-JAK-1 peptide); conditions: recombinant human JAK2, 12 uM ATP, 60 min; class symbol
T1 construct: purchased Life technology
Protocol: (§1) Test for In Vitro Activity of Jak1, Jak2, and Jak3 Kinase
(§2) Recombinant human […] of JAK1, JAK2 and JAK3 were purchased from Life technology. LANCE Ultra ULight™-JAK-1 (Tyr1023) peptide and LANCE Eu-W1024 Anti-phosphotyrosine (PT66) were purchased from PerkinElmer. Multimode ELISA, Envison(PerkinElmer) reader was used.
The reaction was carried out at room temperature for 60 min and the reaction system was 10 ul.
(§3) Determination for Reaction
(§4) 10 ul detection reagent was added to reaction plate, wherein the final concentration of LANCE Eu-W1024 Anti-phosphotyrosine (PT66) was 2 nM, the final concentration of EDTA was […], incubated at room temperature for 60 min, with Envison reader.
(§5) The reading was converted to inhibition ratio (%) by the following formula: the inhibition ratio (%)=([…])/(Max−Min)×100%.

JAK1 = target: T2, JAK1 (Homo sapiens, UniProt P23458); experiment: Test for in vitro activity of JAK1 kinase (LANCE Ultra ULight-JAK-1 peptide); conditions: selectivity ratio JAK1 versus JAK2; class symbol
T2 construct: purchased Life technology
Protocol: as §1, §2
The reaction was carried out at room temperature for 90 min and the reaction system was 10 ul.
as §3, §4, §5

JAK3 = target: T3, JAK3 (Homo sapiens, UniProt P52333); experiment: Test for in vitro activity of JAK3 kinase (LANCE Ultra ULight-JAK-1 peptide); conditions: selectivity ratio JAK3 versus JAK2; class symbol
T3 construct: purchased Life technology
T3 sequence (P52333 1-1124): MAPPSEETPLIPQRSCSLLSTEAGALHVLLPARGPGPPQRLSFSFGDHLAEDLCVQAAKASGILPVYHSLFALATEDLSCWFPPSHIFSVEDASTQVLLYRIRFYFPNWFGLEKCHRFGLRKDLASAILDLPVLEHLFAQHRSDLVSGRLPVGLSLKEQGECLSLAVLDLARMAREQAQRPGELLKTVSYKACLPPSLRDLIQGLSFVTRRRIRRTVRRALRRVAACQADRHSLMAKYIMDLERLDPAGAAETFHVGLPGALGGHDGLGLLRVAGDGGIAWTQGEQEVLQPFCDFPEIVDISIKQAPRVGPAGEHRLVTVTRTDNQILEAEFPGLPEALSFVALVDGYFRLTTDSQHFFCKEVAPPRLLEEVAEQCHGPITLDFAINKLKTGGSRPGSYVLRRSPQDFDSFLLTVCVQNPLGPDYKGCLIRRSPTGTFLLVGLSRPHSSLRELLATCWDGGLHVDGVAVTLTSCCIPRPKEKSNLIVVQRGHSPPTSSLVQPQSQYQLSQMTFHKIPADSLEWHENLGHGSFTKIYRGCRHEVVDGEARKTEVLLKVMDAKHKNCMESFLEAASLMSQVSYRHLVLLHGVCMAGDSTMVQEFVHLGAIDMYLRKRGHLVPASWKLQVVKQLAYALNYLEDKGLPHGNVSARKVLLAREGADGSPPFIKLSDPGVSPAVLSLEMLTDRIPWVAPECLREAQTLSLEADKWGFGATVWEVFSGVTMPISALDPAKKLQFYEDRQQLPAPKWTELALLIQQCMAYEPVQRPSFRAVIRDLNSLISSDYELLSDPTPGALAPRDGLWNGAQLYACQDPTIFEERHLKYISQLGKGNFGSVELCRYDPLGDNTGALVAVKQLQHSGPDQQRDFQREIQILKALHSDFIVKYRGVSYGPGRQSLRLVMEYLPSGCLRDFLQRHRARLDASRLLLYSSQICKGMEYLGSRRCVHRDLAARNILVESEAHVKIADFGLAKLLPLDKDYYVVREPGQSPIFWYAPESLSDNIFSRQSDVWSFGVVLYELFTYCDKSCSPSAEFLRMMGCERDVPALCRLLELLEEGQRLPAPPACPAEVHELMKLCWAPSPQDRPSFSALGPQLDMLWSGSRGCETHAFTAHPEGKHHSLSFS
Protocol: as §1, §2
0.05 nM of JAK3 Protein kinase, 50 nM of LANCE Ultra ULight™-JAK-1(Tyr1023) peptide, 4 uM of ATP, 50 mM of HEPES (pH 7.5), 10 mM of MgCl2, 1 mM of EGTA, 2 mM of DTT, 0.01% BRIJ-35. […] The reaction was carried out at room temperature for 90 min and the reaction system was 10 ul.
as §3, §4, §5

T2 sequence (P23458 whole entry): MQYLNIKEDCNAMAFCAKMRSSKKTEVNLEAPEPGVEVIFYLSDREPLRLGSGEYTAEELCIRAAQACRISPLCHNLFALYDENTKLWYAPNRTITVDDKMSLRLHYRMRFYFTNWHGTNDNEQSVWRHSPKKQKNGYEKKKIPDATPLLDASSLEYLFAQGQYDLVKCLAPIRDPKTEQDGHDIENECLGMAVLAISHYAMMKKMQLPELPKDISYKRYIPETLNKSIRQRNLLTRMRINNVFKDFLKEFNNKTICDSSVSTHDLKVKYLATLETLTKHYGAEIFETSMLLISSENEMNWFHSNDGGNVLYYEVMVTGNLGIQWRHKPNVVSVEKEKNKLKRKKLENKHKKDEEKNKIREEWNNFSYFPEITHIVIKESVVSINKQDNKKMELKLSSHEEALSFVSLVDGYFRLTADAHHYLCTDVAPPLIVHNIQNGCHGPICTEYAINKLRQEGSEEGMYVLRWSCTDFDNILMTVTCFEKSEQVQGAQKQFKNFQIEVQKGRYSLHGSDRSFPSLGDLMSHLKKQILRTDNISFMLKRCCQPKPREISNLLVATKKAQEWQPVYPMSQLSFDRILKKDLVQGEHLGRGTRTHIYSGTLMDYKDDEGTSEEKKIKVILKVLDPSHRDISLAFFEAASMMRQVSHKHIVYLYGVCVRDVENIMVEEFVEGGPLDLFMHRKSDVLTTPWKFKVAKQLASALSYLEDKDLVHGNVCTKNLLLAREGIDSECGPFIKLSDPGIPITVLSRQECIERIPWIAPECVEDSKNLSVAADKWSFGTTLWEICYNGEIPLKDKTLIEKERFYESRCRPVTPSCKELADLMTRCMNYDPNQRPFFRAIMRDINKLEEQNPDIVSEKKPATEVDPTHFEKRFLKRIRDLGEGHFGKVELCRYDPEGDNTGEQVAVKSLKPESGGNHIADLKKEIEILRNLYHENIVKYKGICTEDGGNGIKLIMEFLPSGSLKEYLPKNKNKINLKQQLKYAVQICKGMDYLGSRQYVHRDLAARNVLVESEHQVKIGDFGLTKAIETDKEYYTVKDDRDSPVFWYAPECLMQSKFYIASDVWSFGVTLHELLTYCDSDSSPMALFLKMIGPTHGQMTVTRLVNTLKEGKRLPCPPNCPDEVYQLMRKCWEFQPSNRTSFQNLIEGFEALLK
T1 sequence (O60674 whole entry): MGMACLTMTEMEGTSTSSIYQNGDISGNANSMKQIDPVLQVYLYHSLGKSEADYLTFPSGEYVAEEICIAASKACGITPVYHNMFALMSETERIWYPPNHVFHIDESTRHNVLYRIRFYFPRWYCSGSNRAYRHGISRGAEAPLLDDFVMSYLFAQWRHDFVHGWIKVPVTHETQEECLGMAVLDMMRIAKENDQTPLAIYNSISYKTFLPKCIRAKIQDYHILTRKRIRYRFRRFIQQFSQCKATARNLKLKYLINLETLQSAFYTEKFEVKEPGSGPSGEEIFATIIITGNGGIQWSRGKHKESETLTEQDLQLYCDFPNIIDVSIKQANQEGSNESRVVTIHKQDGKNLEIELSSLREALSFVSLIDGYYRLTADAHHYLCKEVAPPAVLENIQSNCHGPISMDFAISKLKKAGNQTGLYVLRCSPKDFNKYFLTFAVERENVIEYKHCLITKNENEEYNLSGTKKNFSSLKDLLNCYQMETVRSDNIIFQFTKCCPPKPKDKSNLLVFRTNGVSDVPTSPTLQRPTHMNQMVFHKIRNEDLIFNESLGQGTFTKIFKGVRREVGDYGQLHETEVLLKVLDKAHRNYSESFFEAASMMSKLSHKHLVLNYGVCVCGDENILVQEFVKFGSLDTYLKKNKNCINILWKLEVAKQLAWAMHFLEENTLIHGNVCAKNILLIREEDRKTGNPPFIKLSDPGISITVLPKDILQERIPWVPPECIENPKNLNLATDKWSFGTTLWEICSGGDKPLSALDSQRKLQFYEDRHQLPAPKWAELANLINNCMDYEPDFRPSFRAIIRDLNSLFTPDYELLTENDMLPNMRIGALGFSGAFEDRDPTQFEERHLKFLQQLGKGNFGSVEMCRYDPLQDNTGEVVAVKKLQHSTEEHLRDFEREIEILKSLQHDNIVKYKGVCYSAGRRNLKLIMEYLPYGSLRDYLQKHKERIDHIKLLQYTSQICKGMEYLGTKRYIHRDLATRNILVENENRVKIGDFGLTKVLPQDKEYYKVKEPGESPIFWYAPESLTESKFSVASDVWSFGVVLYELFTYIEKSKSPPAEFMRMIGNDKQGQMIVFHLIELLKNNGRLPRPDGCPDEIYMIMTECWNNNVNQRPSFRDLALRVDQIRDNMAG

Row | IC50 (JAK2) [nM] | JAK1/JAK2 (times) (JAK1) | JAK3/JAK2 (times) (JAK3) | SMILES
1 | < 10 | F1 (1 ≤ F1 ≤ 5) | F3 (10 < F3 ≤ 25) | N#CCC1(n2cc(-c3nccc4nc(NC(=O)C5CC5)nn34)cn2)CN(S(=O)(=O)C(F)(F)F)C1 [WX02, N-[5-[1-[3-(cyanomethyl)-1-(trifluoromethylsulfonyl)azetidine-3-yl]pyrazole-4-yl]-[1,2,4]triazolo[1,5-c]pyrimidin-2-yl]cyclopropanecarboxamide]
2 | 10 to 100 | F2 (5 < F2 ≤ 10) | F3 (10 < F3 ≤ 25) | CS(=O)(=O)N1CC(CC#N)(n2cc(-c3nccc4nc(NC(=O)C5CC5)nn34)cn2)C1 [WX12, N-[5-[1-[3-(cyanomethyl)-1-methanesulfonyl-azetidine-3-]pyrazole-4-]-[1,2,4]triazoloe[1,5-c]pyrimidine2-] cyclopropane carboxamide]
3 | < 10 | F1 (1 ≤ F1 ≤ 5) | F3 (10 < F3 ≤ 25) | CCS(=O)(=O)N1CC(CC#N)(n2cc(-c3cccc4nc(NC(=O)C5CC5)nn34)cn2)C1 [WX16, N-(5-(1-(3-(cyanomethyl)-1-(ethylsulfony)azetidine-3-yl)-1H-pyrazole-4-yl]-[1,2,4]triazolo[1,5-a]pyridin-2-yl)cyclopropyl carboxamide]
4 | < 10 | F1 (1 ≤ F1 ≤ 5) | F4 (25 < F4 ≤ 100) | CCS(=O)(=O)N1CC(CC#N)(n2cc(-c3cccn4nc(NC(=O)C5CC5)nc34)cn2)C1 [WX20, N-(8-(1-(3-(cyanomethyl)-1-(ethylsulfonyl)azetidine-3-yl)-1H-pyrazole-4-yl)-[1,2,4]triazolo[1,5-a]pyridin-2-yl) cyclopropanecarboxamide]

More lines, now with the values behind:

Row | SMILES | IC50 (JAK2) [nM] | JAK1/JAK2 (times) (JAK1) | JAK3/JAK2 (times) (JAK3)
5 | N#CCC1(n2cc(-c3nccc4nc(NC(=O)C5CNC5)nn34)cn2)CN(S(=O)(=O)C(F)(F)F)C1 [WX06, N-[5-[1-[3-(cyanomethyl)-1-(trifluoromethylsulfonyl)cyclobutylamine-3-yl]pyrazole-4-yl]-[1,2,4]triazolo[1,5-c]pyrimidin-2-yl]cyclobutylamine-3-formamide] | 10 to 100 | F1 (1 ≤ F1 ≤ 5) | F3 (10 < F3 ≤ 25)
6 | COCC(=O)Nc1nc2ccnc(-c3cnn(C4(CC#N)CN(S(=O)(=O)C(F)(F)F)C4)c3)n2n1 [WX24, N-(5-(1-(3-(cyanomethyl)-1-((trifluoromethyl)sulfonyl)azetidine-3-yl)-1H-pyrazole-4-yl)-[1,2,4]triazolo[1,5-c]pyridin-2-yl)-2-methoxyacetamide] | 10 to 100 | F3 (10 < F3 ≤ 25) | F4 (25 < F4 ≤ 100)
7 | CS(=O)(=O)N1CC(CC#N)(n2cc(-c3nccc4nc(N)nn34)cn2)C1 [WX04, 2-[3-[4-(2-amino-[1,2,4]triazolo[1,5-c]pyrimidin-5-yl)pyrazole-1-yl]-1-methylsulfonyl-cyclobutylamine-3-yl] acetonitrile] | 10 to 100 | F1 (1 ≤ F1 ≤ 5) | F3 (10 < F3 ≤ 25)
8 | CS(=O)(=O)N1CC(CC#N)(n2cc(-c3cccc4nc(NC(=O)C5CC5)oc34)cn2)C1 [WX30, N-(7-(1-(3-(cyanomethyl)-1-(methylsulfonyl)azetidin-3-yl)-1H-pyrazole-4-yl)benzo[d]oxazole-2-yl) cyclopropanecarboxamide] | < 10 | F2 (5 < F2 ≤ 10) | F4 (25 < F4 ≤ 100)
9 | N#CCC1(n2cc(-c3cccc4nc(NC(=O)C5CC5)nn34)cn2)CN(S(=O)(=O)C(F)(F)F)C1 [WX09, N-(5-(1-(3-(cyanomethyl)-1-(trifluoromethylsulfonyl)azetidine-3-yl)-1H-pyrazole-4-yl)-[1,2,4]triazolo[1,5-a]pyridin-2-yl)cyclopropane formamide] | < 10 | F1 (1 ≤ F1 ≤ 5) | F4 (25 < F4 ≤ 100)
10 | CS(=O)(=O)N1CC(CC#N)(n2cc(-c3cccc4nc(NC(=O)C5CC5)sc34)cn2)C1 [WX28, N-(7-(1-(3-(cyanomethyl)-1-(methylsulfonyl)azetidin-3-yl)-1H-pyrazole-4-yl)benzo[d]thiazole-2-yl) cyclopropanecarboxamide] | < 10 | F3 (10 < F3 ≤ 25) | F4 (25 < F4 ≤ 100)
11 | CS(=O)(=O)N1CC(CC#N)(n2cc(-c3cccc4nc(N)oc34)cn2)C1 [WX29, 2-(3-(4-(2-aminobenzo[d]oxazole-7-yl)-1H-pyrazole-1-yl)-1-(methylsulfonyl)azetidin-3-yl)acetonitrile] | < 10 | F3 (10 < F3 ≤ 25) | F4 (25 < F4 ≤ 100)
12 | CCS(=O)(=O)N1CC(CC#N)(n2cc(-c3nccc4nc(NC(=O)C5CC5)nn34)cn2)C1 [WX01, N-[5-[1-[3-(cyanomethyl)-1-ethylsulfonylazetidine-3-yl]pyrazole-4-yl]-[1,2,4]triazolo[1,5-c]pyrimidin-2-yl]cyclopropanecarboxamide] | 10 to 100 | F2 (5 < F2 ≤ 10) | F3 (10 < F3 ≤ 25)
13 | N#CCC1(n2cc(-c3nccc4nc(NC(=O)C5CC5)nn34)cn2)CN(S(=O)(=O)C(F)F)C1 [WX13, N-[5-[1-[3-(cyanomethyl)-1-(difluoromethylsulfonyl)-azetidine-3-]pyrazole-4-]-[1,2,4]triazoloe[1,5-c]pyrimidine2-]cyclopropane carboxamide] | < 10 | F3 (10 < F3 ≤ 25) | F4 (25 < F4 ≤ 100)
